The source of these data is ChEMBL document CHEMBL3621195, “Analogues of the marine alkaloids oroidin, clathrodin, and hymenidin induce apoptosis in human HepG2 and THP-1 cancer cells” (Medchemcomm, 2015).

Assay [1] has as its system HepG2. Description: Induction of apoptosis in human HepG2 cells at 50 uM incubated for 24 hrs by Annexin V-FITC and propidium iodide staining based microcapillary flow cytometry. Format: functional. Background: Flow cytometry measures light scatter and fluorescence of single cells or particles in a stream.
Assay [2] relates to THP-1. Kind of assay: Induction of cell cycle arrest in human THP1 cells assessed accumulation at subG1 phase at 25 uM incubated for 48 hrs by propidium iodide staining based microcapillary flow cytometry (reference value: 2 +/- 1%). Format: functional.
In assay [3] the test system is THP-1. Kind of assay: Induction of apoptosis in human THP1 cells at 50 uM incubated for 24 hrs by Annexin V-FITC and propidium iodide staining based microcapillary flow cytometry. Format: functional.
Assay [4] has as its system THP-1. Description: Induction of cell cycle arrest in human THP1 cells assessed accumulation at subG1 phase at 25 uM incubated for 24 hrs by propidium iodide staining based microcapillary flow cytometry (reference value: 2 +/- 1%). The assay is classed as functional.
Assay [5] concerns HepG2. Kind of assay: Induction of apoptosis in human HepG2 cells incubated for 24 hrs by Annexin V-FITC and propidium iodide staining based microcapillary flow cytometry. Format: functional, cell-based. To be noted: HepG2, 24 h.
Assay [6] relates to THP-1. Kind of assay: Induction of apoptosis in human THP1 cells incubated for 24 hrs by Annexin V-FITC and propidium iodide staining based microcapillary flow cytometry. To be noted: THP-1, 24 h. Format: functional, cell-based.

What is called pEC50 is the negative decadic logarithm of the EC50, by convention in mol/L. Read a low pEC50 as a high EC50.

pEC50: −log10 of the molar value.

For `Nc1nc2c(s1)C[C@@H](NC(=O)c1cc3ccccc3[nH]1)CC2`, in the assay on HepG2 [1], the Activity was 27%. The same measure, in the same setting: with `Cl.Cl.Nc1nc2c(s1)C[C@@H](NC(=O)[C@@H]1CCCN1)CC2` the figure was 22%; with `Cn1cccc1C(=O)N[C@H]1CCc2nc(N)sc2C1`, 20%; with `Nc1nc2c(s1)C[C@@H](NC(=O)c1ccco1)CC2`, 29%. Same read-out and setting: the value for `Nc1nc2c(s1)C[C@@H](NCc1ccc[nH]1)CC2` was 30%; that for `Nc1nc2c(s1)CC(CNC(=O)c1ccc[nH]1)CC2` (stereo not given) was 20%.

In the case of `Nc1nc2c(s1)CC(CNC(=O)c1cc(Br)c(Br)[nH]1)CC2` (stereo not given), the Activity with HepG2 [1] was found to be 23%. Same read-out and setting: the value for `Nc1nc2c(s1)CC(CNC(=O)c1cc3ccccc3[nH]1)CC2` (stereo not given) was 32%; that for `CC(C)(C)OC(=O)N1CCC[C@H]1C(=O)NCC1CCc2nc(N)sc2C1` (stereo not given in full) was 23%.

In the case of `Cl.Cl.Nc1nc2c(s1)CC(CNC(=O)[C@@H]1CCCN1)CC2` (stereo not given in full), the Activity with HepG2 [1] was determined as 27%.

As to `Nc1nc2c(s1)C[C@@H](NC(=O)c1ccc[nH]1)CC2`, the Activity with HepG2 [1] was 23%.

`Nc1nc2c(s1)C[C@@H](NC(=O)c1cc(Br)c[nH]1)CC2` registered an Activity in the assay on HepG2 [1] of 28%. As to `Nc1nc2c(s1)C[C@@H](NC(=O)c1cc(Br)c(Br)[nH]1)CC2`, the Activity in the assay on HepG2 [1] turned out to be 35%. Consider `CNc1nc(-c2cccc(NC(=O)c3cc4ccccc4[nH]3)c2)c[nH]1.Cl`, for which the Activity worked out at 49% in the assay with THP-1 [2], 87% in the assay with THP-1 [3], 18% with THP-1 [4] and 91% in the assay with HepG2 [1]. Further, the pEC50 was 4.70 in the assay with HepG2 [5] and 4.62 with THP-1 [6]. For the molecule `CNc1nc(-c2cccc(NC(=O)c3cc4ccccc4[nH]3)c2)cn1C(=O)OC(C)(C)C`, the Activity with HepG2 [1] was found to be 90%.

Regarding `Cl.Nc1nc(-c2cccc(NC(=O)c3ccc[nH]3)c2)c[nH]1`, the Activity in the assay with HepG2 [1] is 13%. Take `CC(C)(C)OC(=O)n1cc(-c2cccc(NC(=O)c3cc[nH]c3)c2)nc1N`: in the assay on HepG2 [1], the Activity turned out to be 19%.

Consider `CC(C)(C)OC(=O)n1cc(-c2cccc(NC(=O)c3cc4ccccc4[nH]3)c2)nc1N`, for which the Activity in the assay on HepG2 [1] is listed as 75%. Same read-out and setting: with `CC(C)(C)OC(=O)n1cc(-c2cccc(NC(=O)c3c[nH]c4ccccc34)c2)nc1N` the figure was 62%; with `Cl.Nc1nc(-c2cccc(NC(=O)c3c[nH]c4ccccc34)c2)c[nH]1`, 55%. `CNc1nc(-c2cccc(NC(=O)c3ccco3)c2)cn1C(=O)OC(C)(C)C` gave an Activity in the assay with HepG2 [1] of 44%. On to `CC(C)(C)OC(=O)n1cc(-c2cccc(NC(=O)c3ccc[nH]3)c2)nc1N`, for which the Activity in the assay on HepG2 [1] stood at 21%. The same measure, in the same setting: the value for `Cl.Nc1nc(-c2cccc(NC(=O)c3cc4cc(OCc5ccccc5)ccc4[nH]3)c2)c[nH]1` was 50%; that for `Nc1nc(/C=C/CNC(=O)c2cc3ccccc3[nH]2)c[nH]1` was 36%. The molecule `Nc1nc(/C=C/CNC(=O)c2cc3cc(F)ccc3[nH]2)c[nH]1` gave an Activity in the assay with HepG2 [1] of 38%. The same measure, in the same setting: with `CC(C)(C)OC(=O)n1cc(-c2cccc(NC(=O)c3cc4cc(OC(F)(F)F)ccc4[nH]3)c2)nc1N` the figure was 43%; with `CC(C)(C)OC(=O)n1cc(-c2cccc(NC(=O)c3cc4cc(O)ccc4[nH]3)c2)nc1N`, 56%. Consider `Cl.Nc1nc(-c2cccc(NC(=O)c3cc4cc(F)ccc4[nH]3)c2)c[nH]1`, for which the Activity in the assay on THP-1 [2] is listed as 41%; with THP-1 [3] it was 87%; with THP-1 [4], 36%; in the assay with HepG2 [1], 98%. Further, the pEC50 in the assay on HepG2 [5] was 4.89; in the assay on THP-1 [6] it was 4.64. With `Cl.Nc1nc(-c2cccc(NC(=O)c3cc4cc(Cl)ccc4[nH]3)c2)c[nH]1`, the Activity with THP-1 [2] is 40%; in the assay with THP-1 [3], 87%; with THP-1 [4], 26%; in the assay on HepG2 [1], 93%. Also, the pEC50 in the assay with HepG2 [5] was 4.80; in the assay on THP-1 [6] it was 4.62. Turning to `COc1ccc2[nH]c(C(=O)Nc3cccc(-c4c[nH]c(N)n4)c3)cc2c1.Cl`, the Activity in the assay on THP-1 [2] is reported as 60%; in the assay on THP-1 [3], 87%; in the assay with THP-1 [4], 45%; with HepG2 [1], 78%. The pEC50 with HepG2 [5] was 4.74; in the assay on THP-1 [6], 4.70. As for `Cl.Nc1nc(-c2cccc(NC(=O)c3cc4sccc4[nH]3)c2)c[nH]1`, the Activity with THP-1 [3] was determined as 12%; in the assay on HepG2 [1] it was 96%. In addition, the pEC50 in the assay on HepG2 [5] was 4.38; in the assay on THP-1 [6], less than 4.30. `Nc1nc(/C=C/CNC(=O)c2cc(Br)c[nH]2)c[nH]1` yielded an Activity in the assay with HepG2 [1] of 25%. Still for that read-out and setting: the value for `Nc1nc(CCCNC(=O)c2ccc[nH]2)c[nH]1` was 25%. As to `Nc1nc(/C=C/CNC(=O)c2ccccc2)c[nH]1`, in the assay on HepG2 [1], the Activity was determined as 33%. For the molecule `COc1ccc2[nH]c(C(=O)Nc3cccc(-c4cn(C(=O)OC(C)(C)C)c(N)n4)c3)cc2c1`, in the assay on HepG2 [1], the Activity stood at 87%. The same measure, in the same setting: the value for `CC(C)(C)OC(=O)n1cc(-c2cccc(NC(=O)c3cc4cc(F)ccc4[nH]3)c2)nc1N` was 89%; that for `CC(C)(C)OC(=O)n1cc(-c2cccc(NC(=O)c3cc4sccc4[nH]3)c2)nc1N` was 86%; that for `CNC1=NC(c2cccc(NC(=O)c3ccco3)c2)CN1C(=O)OC(C)(C)C` (stereo not given) was 32%.

`CC(C)(C)OC(=O)n1cc(-c2cccc(NC(=O)c3cc4cc(OCc5ccccc5)ccc4[nH]3)c2)nc1N` returned an Activity in the assay on HepG2 [1] of 81%. On the same count and under the same terms, with `CC(C)(C)OC(=O)n1cc(-c2cccc(NC(=O)c3cc4cc(Cl)ccc4[nH]3)c2)nc1N` the figure was 91%. Turning to `CNC1=NC(c2cccc(NC(=O)c3ccc[nH]3)c2)CN1C(=O)OC(C)(C)C` (stereo not given), the Activity in the assay on HepG2 [1] is reported as 31%.

`CNC1=NC(c2cccc(NC(=O)c3cc4ccccc4[nH]3)c2)CN1C(=O)OC(C)(C)C` (stereo not given) displayed an Activity in the assay with HepG2 [1] of 74%. Same read-out and setting: the value for `Cl.Cl.Nc1nc(CN2CCN(C(=O)c3ccc[nH]3)CC2)c[nH]1` was 27%; that for `Cl.Cl.Nc1nc(CN2CCN(Cc3ccc[nH]3)CC2)c[nH]1` was 34%. Same read-out and setting: the value for `Cl.Cl.Cl.Nc1nc(CN2CCN(C(=O)[C@@H]3CCCN3)CC2)c[nH]1` was 28%.

With `Cl.Cl.Nc1nc(CN2CCN(C(=O)c3cc4ccccc4[nH]3)CC2)c[nH]1`, the Activity in the assay on HepG2 [1] is given as 32%.

Turning to `Cl.Cl.Nc1nc(CN2CCN(C(=O)c3c[nH]c4ccccc34)CC2)c[nH]1`, the Activity with HepG2 [1] is 30%. `Cl.Cl.Nc1nc(CN2CCN(Cc3ccccc3)CC2)c[nH]1`: the Activity in the assay with HepG2 [1] amounted to 32%. Molecule `Cl.Cl.Nc1nc(CN2CCN(C(=O)c3cccnc3)CC2)c[nH]1` gave an Activity in the assay on HepG2 [1] of 28%. Regarding `O=C(c1ccc[nH]1)N1CCN(Cc2c[nH]cn2)CC1`, the Activity in the assay on HepG2 [1] was 23%. In the case of `Nc1ncc(CC(=O)N2CCN(C(=O)c3ccc[nH]3)CC2)s1`, in the assay with HepG2 [1], the Activity came to 23%. In the assay on HepG2 [1], `Nc1ncc(C(=O)N2CCN(C(=O)c3ccc[nH]3)CC2)s1` had an Activity of 20%. Still for that read-out and setting: with `CC(C)(C)OC(=O)n1cc(-c2cccc(NCc3ccc[nH]3)c2)nc1N` the figure was 40%. On the same count and under the same terms, with `CC(C)(C)OC(=O)N1CCCC1C(=O)Nc1cccc(-c2cn(C(=O)OC(C)(C)C)c(N)n2)c1` (single isomer, unassigned) the figure was 18%; with `Cl.Cl.Nc1nc(-c2cccc(NC(=O)C3CCCN3)c2)c[nH]1` (single isomer, unassigned), 16%. Consider `Nc1ncc(/C=C/CNC(=O)c2ccc[nH]2)[nH]1` [CLATHRODIN], for which, in the assay on HepG2 [1], the Activity is reported as 27%.

For `Nc1ncc(/C=C/CNC(=O)c2cc(Br)c(Br)[nH]2)[nH]1` [OROIDIN], the Activity in the assay with HepG2 [1] is 35%.
